Columns and labels:
[1] = system: CD38 histone H3 acetylation; assay: ChIP-qPCR of CD38 histone H3 acetylation; assay type: cell-based, human; details: MM.1S (similar in RPMI-8226); 2.5 μM, 48 hours; vs DMSO
Procedure: Chromatin Immunoprecipitation RPMI-8226 and MM.1S cell lines were treated with DMSO or tinostamustine (2.5 μM) for 48 hours. Then, the cells were fixed with Pierce™ fresh methanol-free formaldehyde (ThermoFisher) for 15 minutes and prepared for sonication with the truChIP Chromatin Shearing Kit (Covaris, Woburn, MA, USA), following the manufacturer's instructions and as previously described (Garcia-Gomez et al., Nat Commun 12: 421, 2021).
For ChIP-qPCR, samples were diluted 1/10, and 4 μL and specific primers (Supplementary Table 1) were used for each reaction. RT-qPCR was performed in technical triplicates for each biological replicate, using LightCycler® 480 SYBR Green Mix (Roche). The relative amount of immunoprecipitated DNA was compared to the input DNA for each condition.

IRF-1 = assay: Western blot of transcription factors in MM cell lines; assay type: cell-based, human; details: MOLP-8 cell line; 1 and 2.5 μM, 48 h
Procedure: (§1) Western Blot Analysis Cells were collected and centrifuged at 1200 rpm for 5 minutes at 4° C. Cells were washed with PBS and lysed in ice-cold lysis buffer [140 mmol/L NaCl, 10 mmol/L EDTA, 10% glycerol, 1% NP40, 20 mmol/L Tris (pH 7), 1 μMol/L pepstatin, 1 μg/mL aprotinin, 1 μg/mL leupeptin, 1 mmol/L sodium orthovanadate]. Samples were centrifuged at 10,000×g at 4° C. for 10 minutes, and supernatants were transferred to new tubes and western blots were performed following standard procedures. CD38 and anti-α-tubulin primary antibodies used in Western blot analyses were obtained from Cell Signaling (Boston, MA, USA). The horseradish peroxidase-conjugated secondary antibodies were from GE Healthcare (Chicago, IL, USA).
(§2) To determine the mechanism by which EDO-S101 increases CD38 expression, the expression of the transcription factors NF-κB, AP-1 and IRF-1 which are known to be involved in regulating the expression of CD38 was evaluated. Treatment with EDO-S101 (1 and 2.5 μM) for 48 h increased the expression of c-Jun and c-Fos (subunits of the transcription factor AP-1) in two (MM1.S and RPMI-8226) of the four myeloma cell lines tested (FIG. 5). Additionally, EDO-S101 increased IRF-1 expression in the MOLP-8 cell line (FIG. 5).

[2] = system: c-Jun and c-Fos (subunits of the transcription factor AP-1); assay: as above; assay type: cell-based, human; details: MM1.S and RPMI-8226 (two of four lines); 1 and 2.5 μM, 48 h
Procedure: as §1, §2

[3] = system: CD38 expressed on MM cells; assay: Daratumumab binding to myeloma cells pre-treated with EDO-S101, flow cytometry; assay type: cell-based, human; details: JJN3, RPMI-8226, MOLP-8; EDO-S101 1 or 2.5 μM 48 h, then daratumumab 10 μg/ml
Procedure: Evaluation of daratumumab binding to myeloma cells To evaluate daratumumab binding to myeloma cells, MM cell lines were first pre-treated with tinostamustine (1 or 2.5 μM) or DMSO for 48 hours. Then cells were washed to remove tinostamustine or DMSO from the culture medium, and daratumumab (10 μg/ml) was added and incubated for 30 minutes. After that time, cells were washed with PBS twice and incubated during 30 additional minutes with anti-human-IgG1-AlexaFluor488 (Invitrogen, Carlsbad, CA, USA). Cells were acquired in a FACSCalibur cytometer and normalized MFI was calculated as described above.
Flow cytometry was used to analyse the binding of daratumumab to MM cells pre-treated with EDO-S101. The anti-human-IgG1-Alexa Fluor 488 (Invitrogen, Carlsbad, CA, USA) antibody recognizes and binds daratumumab's Fc region and, therefore, it can be detected using flow cytometry.
MM cells (JJN3, MM1.S, RPMI-8226, MOLP-8) were treated with EDO-S101 (1 μM or 2.5 μM) in accordance with the general methods outlined above. Following treatment, the cells were washed with PBS, and incubated at 37° C. for 30 minutes with 10 μg/ml daratumumab. Cells were then washed with PBS, anti-human-IgG1-Alexa Fluor 488 was added, and the cells were incubated at 37° C. for a further 30 minutes. […]

MM1S-luc derived tumors = assay: Disseminated human myeloma model, CB17-SCID mice; assay type: in vivo; details: EDO-S101 15 mg/kg i.v. weekly, daratumumab 8 mg/kg i.p. weekly, 4 weeks; vehicle 33 days
Procedure: MM1S-luc cells (3×10^6) were injected intravenously (i.v.) into CB17-SCID mice which were determined to have normal NK cells, monocytes and granulocytes (The Jackson Laboratory, Bar Harbor, ME, USA). Tumor development was monitored by non-invasive bioluminescence imaging (BLI) with a Xenogen IVIS 50 system (Caliper Life Sciences, Hopkinton, MA, USA). Mice were randomized into four groups (n=5/group): one receiving vehicle (i.v., weekly), another group receiving EDO-S101 (15 mg/kg i.v., weekly on Tuesdays), another group receiving daratumumab (8 mg/kg i.p., weekly on Wednesdays) and the last group receiving the double combination of EDO-S101+daratumumab. Both drugs were administered over a period of 4 weeks.
CB17-SCID mice bearing MM1S-luc derived tumors were treated with EDO-S101, daratumumab, a combination thereof, or vehicle, in accordance with the methods outlined above. MM1S-Luc cells (3×10^6) were intravenously injected into CB17-SCID mice. After 2 weeks, mice were randomized into four groups: one receiving vehicle (i.v., weekly), another group receiving EDO-S101 (15 mg/kg i.v., weekly on Tuesdays), another group receiving daratumumab (8 mg/kg i.p., weekly on Wednesdays) and the last group received the double combination of EDO-S101+daratumumab. Survival of mice analyzed with a Kaplan-Meier curve. Both drugs were administered over a period of 4 weeks.

**Q.** Which results are given for `Cn1c(CCCCCCC(=O)NO)nc2cc(N(CCCl)CCCl)ccc21` [EDO-S101, 7-(5-(bis(2-chloroethyl)amino)-1-methyl-1H-benzo[d]imidazol-2-yl)-N-hydroxyheptanamide]?
**A.** CD38 histone H3 acetylation levels [1]: elevated; IRF-1 expression (IRF-1): increased; expression of c-Jun and c-Fos [2]: increased; binding of daratumumab to MM cells (normalized MFI) [3]: increases; median survival (MM1S-luc derived tumors): 45 days
